Measurements taken from patent publication EP4585587A1, “PROPIONIC ACID DERIVATIVE AND USE THEREOF IN MEDICINE” (priority 2022, dated 2024).
Counter-ions that a name gives are not always drawn. Like-named read-outs stand apart in the source and are kept apart here.

Key:
integrin α4β7 = molecular target: T1, integrin α4β7 (Homo sapiens, UniProt P13612+P26010); test: Integrin α4β7 cell adhesion assay (RPMI8866 cells on MAdCAM-1); format: cell-based
T1 sequence (P13612 34-1032): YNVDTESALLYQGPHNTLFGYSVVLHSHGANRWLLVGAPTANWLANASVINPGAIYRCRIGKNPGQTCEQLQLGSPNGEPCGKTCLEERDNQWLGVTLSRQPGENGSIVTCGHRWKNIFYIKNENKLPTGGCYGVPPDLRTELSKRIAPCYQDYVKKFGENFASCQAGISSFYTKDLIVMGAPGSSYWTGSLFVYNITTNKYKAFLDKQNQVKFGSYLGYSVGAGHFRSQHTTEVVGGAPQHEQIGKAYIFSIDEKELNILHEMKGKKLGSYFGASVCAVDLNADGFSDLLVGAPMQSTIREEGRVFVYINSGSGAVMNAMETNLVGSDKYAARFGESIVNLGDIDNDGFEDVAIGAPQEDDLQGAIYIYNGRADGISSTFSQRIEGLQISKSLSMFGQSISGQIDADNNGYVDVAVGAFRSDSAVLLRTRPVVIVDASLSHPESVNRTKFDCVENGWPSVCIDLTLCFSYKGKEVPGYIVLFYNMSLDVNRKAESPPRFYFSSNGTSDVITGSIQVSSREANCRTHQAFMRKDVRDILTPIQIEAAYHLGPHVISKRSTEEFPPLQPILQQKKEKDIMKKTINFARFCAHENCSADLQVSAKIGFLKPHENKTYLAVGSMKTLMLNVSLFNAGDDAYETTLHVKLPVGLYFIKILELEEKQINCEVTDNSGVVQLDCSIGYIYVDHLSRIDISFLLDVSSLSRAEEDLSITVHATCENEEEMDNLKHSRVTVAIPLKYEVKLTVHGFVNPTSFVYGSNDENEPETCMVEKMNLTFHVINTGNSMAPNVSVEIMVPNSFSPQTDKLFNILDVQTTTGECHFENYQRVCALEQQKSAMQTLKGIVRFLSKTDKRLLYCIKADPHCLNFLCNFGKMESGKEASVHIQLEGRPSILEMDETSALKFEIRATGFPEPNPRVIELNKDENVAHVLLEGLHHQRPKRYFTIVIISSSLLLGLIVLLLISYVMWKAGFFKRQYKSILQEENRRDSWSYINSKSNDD
T1 sequence (P26010 20-798): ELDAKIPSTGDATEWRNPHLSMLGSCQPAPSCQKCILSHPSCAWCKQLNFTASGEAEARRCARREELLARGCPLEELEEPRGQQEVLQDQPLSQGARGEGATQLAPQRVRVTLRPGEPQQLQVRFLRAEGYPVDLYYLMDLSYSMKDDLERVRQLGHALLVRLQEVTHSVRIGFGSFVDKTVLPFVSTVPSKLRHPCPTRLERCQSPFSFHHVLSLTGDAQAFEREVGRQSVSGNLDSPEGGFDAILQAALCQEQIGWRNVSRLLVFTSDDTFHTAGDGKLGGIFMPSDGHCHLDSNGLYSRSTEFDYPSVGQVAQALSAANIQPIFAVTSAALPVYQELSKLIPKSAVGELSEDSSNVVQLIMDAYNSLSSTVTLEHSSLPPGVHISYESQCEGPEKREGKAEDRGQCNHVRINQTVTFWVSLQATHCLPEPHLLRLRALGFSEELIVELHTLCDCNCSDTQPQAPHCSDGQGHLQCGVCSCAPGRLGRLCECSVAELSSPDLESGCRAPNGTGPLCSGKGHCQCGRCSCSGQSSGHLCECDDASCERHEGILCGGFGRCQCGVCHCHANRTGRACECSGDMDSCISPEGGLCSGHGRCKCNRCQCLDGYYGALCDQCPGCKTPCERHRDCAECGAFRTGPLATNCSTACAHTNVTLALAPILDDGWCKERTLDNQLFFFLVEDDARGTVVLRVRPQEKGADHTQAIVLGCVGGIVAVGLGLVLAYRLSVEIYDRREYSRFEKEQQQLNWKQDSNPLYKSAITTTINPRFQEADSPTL
Protocol: MAdCAM-1 was formulated with TBS buffer to a final concentration of 2 µg/ml, 50 µl of the solution was transferred to a 96-well plate, and the plate was coated with same at 4°C overnight. The plate was washed with TBS buffer three times, then 150 µl of a blocking solution (TBS buffer containing 1% BSA) was added, and the plate was blocked at 37°C for 1 h. […] 50 µl of the cell suspension was transferred to a 96-well plate so that the cell density reached 2×10^5 cells/well. Then 1 µl of the compound at different concentrations or DMSO was added and the plate was incubated at 37°C for 1 h or 2 h. The plate was washed with TBS buffer to remove non-adherent cells. 50 µl of a substrate (4-nitrophenyl-N-acetyl-β-D-glucosaminide) was added and the plate was incubated at 37°C for 2 h. […] The IC50 value was calculated using GraphPad Prism 6 software.

integrin α4β1 = test: Integrin α4β1-mediated cell adhesion assay (Jurkat cells on VCAM); format: cell-based
Protocol: VCAM was formulated into a final concentration of 0.5 µg/ml with a coating buffer, 50 µl of the solution was transferred to a 96-well plate, and the plate was coated with same at 4°C overnight. The plate was washed with coating buffer three times, then 150 µl of a blocking solution (coating buffer containing 1% BSA) was added, and the plate was blocked at 37°C for 1 h. Jurkat cells were collected, washed twice using DPBS buffer, and then resuspended to 4 × 10^6 cells/ml with an action buffer. 50 µl of the cell suspension was transferred to a 96-well plate so that the cell density reached 2 × 10^5 cells/well. Then 1 µl of the test compound at different concentration or DMSO was added and the plate was incubated at 37°C for 1 h. The plate was washed with coating buffer to remove non-adherent cells. 50 µl of a substrate (4-nitrophenyl-N-acetyl-β-D-glucosaminide) was added and the plate was incubated at 37°C for 2 h. Finally, 90 µl of a termination solution (50 mM glycine and 5 mM EDTA, pH 10.4) was added. The OD value of the plate was read at 405 nm. • Coating buffer: DMEM+ 20 mM HEPES+ 0.4 mM MnCl2 • Action buffer: DMEM+ 20 mM HEPES+ 0.1% BSA+0.4 mM MnCl2 • DMEM: dulbecco's modified eagle medium; • HEPES: 2-[4-(2-hydroxyethyl)piperazin-1-yl]ethanesulfonic acid Table 1 Results of effects of compounds on α4β7- and α4β1-mediated cell adhesion

[1] = RPMI8866 cells, MAdCAM-1 coated plate, reported as class symbol, read-out: RPMI-8866 (α4β7)/MadCAM-1 IC50
[2] = selectivity ratio of Jurkat (α4β1)/VCAM-1 IC50 to RPMI-8866 (α4β7)/MadCAM-1 IC50
[3] = RPMI8866 cells, MAdCAM-1 coated plate, numeric value or bound, read-out: RPMI-8866 (α4β7)/MadCAM-1 IC50
[4] = Jurkat cells, VCAM coated plate; read-out: Jurkat (α4β1)/VCAM-1 IC50

Row | IC50 (integrin α4β7; [1]) [nM] | IC50 (integrin α4β1; [4]) [nM] | Structure (SMILES) | α4β1/α4β7 (integrin α4β1; [2]) | other results
1 | < 10 |  | Cc1cc(F)cc(C)c1-c1cc(C(CC(=O)O)NC(=O)C(CC(C)C)n2cc(CCN(C)CC3CC3(F)F)c(C(F)(F)F)cc2=O)cc2c1CCC2 (single isomer, unassigned) [Compound 1-2] | >50 | 
2 | < 10 |  | C#CC1CN(CCc2cn(C(CC(C)C)C(=O)NC(CC(=O)O)c3cc4c(c(-c5c(C)cc(F)cc5C)c3)CCC4)c(=O)cc2C(F)(F)F)C1 (single isomer, unassigned) [Compound 3-2] |  | 
3 | < 10 |  | COc1ccc(C)c(-c2c(F)c(C(CC(=O)O)NC(=O)[C@H](CC(C)C)n3cc(CCN(C)C)c(C(F)(F)F)cc3=O)c(F)c3c2CCC3)c1C (single isomer, unassigned) [Compound 50-2] |  | 
4 | < 10 |  | Cc1cc(F)cc(C)c1-c1c(F)c(C(CC(=O)O)NC(=O)[C@H](CC(C)C)n2cc(CC3CCN(C4CC4)CC3)c(C(F)(F)F)cc2=O)c(F)c2c1CCC2 (single isomer, unassigned) [Compound 24-2] |  | 
5 | < 10 |  | CC#Cc1cc(-c2c(C)cccc2C)c(F)c(C(CC(=O)O)NC(=O)[C@H](CC(C)C)n2cc(CCN3CCC4(CC4)C3)c(C(F)(F)F)cc2=O)c1F (single isomer, unassigned) [Compound 6-2] |  | 

Continued, compound first:

Row | Structure (SMILES) | IC50 (integrin α4β7; [1]) [nM] | IC50 (integrin α4β1; [4]) [nM] | α4β1/α4β7 (integrin α4β1; [2]) | other results
6 | CC#Cc1cc(-c2c(C)cccc2C)c(F)c(C(CC(=O)O)NC(=O)[C@H](CC(C)C)n2cc(CCC3CCCN3C)c(C(F)(F)F)cc2=O)c1F (stereo partly shown) [Trifluoroacetate salt of compound 29-2] |  | > 200 | 292 | IC50 (integrin α4β7; [3]): < 1 nM
7 | Cc1cccc(C)c1-c1c(F)c(C(CC(=O)O)NC(=O)C(CC(C)C)n2cc(CCN(C)C)c(C(F)(F)F)cc2=O)c(F)c2c1CCC2 (single isomer, unassigned) [Trifluoroacetate salt of compound 20-2] | < 10 | > 500 | 648 | 
8 | CC#Cc1cc(-c2c(C)cccc2C)c(F)c(C(CC(=O)O)NC(=O)C(CC(C)C)n2cc(CC3CN(CC4CC4)C3)c(C(F)(F)F)cc2=O)c1F (single isomer, unassigned) [Trifluoroacetate salt of compound 19-2] | < 10 | > 500 | 323 | 
9 | Cc1cc(F)cc(C)c1-c1cc(C(CC(=O)O)NC(=O)C(CC(C)C)n2cc(CC3CCN(C(C)C)CC3)c(C(F)(F)F)cc2=O)cc2c1CCC2 (stereo not shown) [Trifluoroacetate salt of compound 22-2] |  |  | 307 | 
10 | COc1cc(C)c(-c2c(F)c(C(CC(=O)O)NC(=O)C(CC(C)C)n3cc(CCN(C)C)c(C(F)(F)F)cc3=O)c(F)c3c2CCC3)c(C)c1 (single isomer, unassigned) [Compound 39-2] |  |  | 213 | IC50 (integrin α4β7): < 10 nM; IC50 (integrin α4β1; read-out: Jurkat (α4β1)/VCAM-1 IC50; Jurkat cells, VCAM coated plate): > 500 nM
11 | CC#Cc1cc(-c2c(C)cccc2C)c(F)c(C(CC(=O)O)NC(=O)C(CC(C)C)n2cc(CC3CCN(C(C)C)CC3)c(C(F)(F)F)cc2=O)c1F (single isomer, unassigned) [Trifluoroacetate salt of compound 23-2] | < 10 | > 500 | 310 | 
12 | Cc1cc(F)cc(C)c1-c1c(F)c(C(CC(=O)O)NC(=O)C(CC(C)C)n2cc(CCC3CCN(C)C3)c(C(F)(F)F)cc2=O)c(F)c2c1CCC2 (stereo not shown) [Trifluoroacetate salt of compound 26-2] |  |  | 177 | 
13 | Cc1ccc(F)c(C)c1-c1c(F)c(C(CC(=O)O)NC(=O)[C@H](CC(C)C)n2cc(CCN(C)C)c(C(F)(F)F)cc2=O)c(F)c2c1CCC2 (stereo partly shown) [Trifluoroacetate salt of compound 48-2] |  |  |  | IC50 (integrin α4β7; [3]): < 1 nM
14 | Cc1cc(F)cc(C)c1-c1c(F)c(C(CC(=O)O)NC(=O)[C@H](CC(C)C)n2cc(CCC3CCCN3C)c(C(F)(F)F)cc2=O)c(F)c2c1CCC2 (single isomer, unassigned) [Trifluoroacetate salt of compound 28-2] | < 10 |  | 130 | 
15 | CC#Cc1cc(-c2c(C)cccc2C)c(F)c(C(CC(=O)O)NC(=O)C(CC(C)C)n2cc(CC3CN(C(C)C)C3)c(C(F)(F)F)cc2=O)c1F (single isomer, unassigned) [Trifluoroacetate salt of compound 18-2] | < 10 | > 500 | 258 | 
16 | COc1cc(C)c(-c2c(F)c(C(CC(=O)O)NC(=O)C(CC(C)C)n3cc(CCN(C)C)c(C(F)(F)F)cc3=O)c(F)c3c2CCC3)c(C)c1 (single isomer, unassigned) [Trifluoroacetate salt of compound 21-2] |  |  | 1586 | 
17 | CC#Cc1cc(-c2c(C)cccc2C)c(F)c(C(CC(=O)O)NC(=O)C(CC(C)C)n2cc(CCN(C)CC3CC3(F)F)c(C(F)(F)F)cc2=O)c1F (single isomer, unassigned) [Compound 7-2] | < 10 | > 500 | 182 | 
18 | CC#Cc1cc(-c2c(C)cccc2C)c(F)c(C(CC(=O)O)NC(=O)C(CC(C)C)n2cc(CCC3CCN(C)C3)c(C(F)(F)F)cc2=O)c1F (single isomer, unassigned) [Trifluoroacetate salt of compound 27-2] | < 10 | > 100 | 133 | 
19 | CC#Cc1cc(-c2c(C)cccc2C)c(F)c(C(CC(=O)O)NC(=O)[C@@H](CC(C)C)n2cc(CCN(CC)CC)c(C(F)(F)F)cc2=O)c1F (stereo partly shown) [Trifluoroacetate salt of compound 12-2] |  | > 100 | 354 | IC50 (integrin α4β7; [3]): < 0.5 nM
20 | COc1cc(C)c(-c2c(F)c(C(CC(=O)O)NC(=O)C(CC(C)C)n3cc(CCN(C)C)c(C(F)(F)F)cc3=O)c(F)c3c2CCC3)c(C)c1 (stereo not shown) [Compound 21-A] |  |  | 119 | 
